The structures appear in SMILES notation.

`Cn1nc(-c2ccnc(N[C@H]3CC[C@H](O)CC3)n2)c2ccccc21` [Compound 77, 4-[4-(1-methyl-1H-indazol-3-yl)pyridimidin-2-ylamino]-cyclo-hexanol]: the melting point (usually the temperature, or range, at which the solid turns liquid) lay in the range of 180 to 183.3 °C.

As to `COc1cccc2c(-c3ccnc(N[C@H]4CC[C@H](O)CC4)n3)n[nH]c12` [Compound 80, 4-[4-(7-methoxy-1H-indazol-3-yl)-pyrimidin-2-ylamino]-cyclo-hexanol], the melting point fell in the range of 243.3 to 244.9 °C.

Compound `O[C@H]1CC[C@H](Nc2nccc(-c3noc4ccc(F)cc34)n2)CC1` [Compound 83, 4-[4-(5-fluorobenzo[d]-isoxazol-3-yl)-pyrimidin-2-ylamino]-cyclohexanol] had a melting point of 172 to 173.9 °C.

As for `OCCOc1ccc2cnn(-c3ccnc(N[C@H]4CC[C@H](O)CC4)n3)c2c1` [Compound 89, 4-{4-[6-(2-hydroxy-ethoxy)-indazol-1-yl]-pyrimidin-2-ylamino}-cyclohexanol], the melting point fell in the range of 216.5 to 218.5 °C.

`OCCOc1cccc2c1cnn2-c1ccnc(N[C@H]2CC[C@H](O)CC2)n1` [Compound 90, 4-{4-[4-(2-hydroxy-ethoxy)-indazol-1-yl]-pyrimidin-2-ylamino}-cyclohexanol] displayed a melting point of 208.2 to 210.2 °C.

`COc1cccc2c1cnn2-c1ccnc(NC2CCC(NC(C)=O)CC2)n1` (centres unmarked) [Compound 91, N-{4-[4-(4-methoxy-indazol-1-yl]-pyrimidin-2-ylamino}-cyclohexane}-acetamide]: the melting point lay in the range of 256.9 to 259.9 °C.

On to `CN(c1cccc2c1ccn2-c1ccnc(N[C@H]2CC[C@H](O)CC2)n1)S(C)(=O)=O` [Compound 92, N-{1-[2-(4-hydroxy-cyclohexylamino)-pyrimidin-4-yl]-1H-indol-4-yl}-N-methyl-methanesulfonamide], for which the melting point is 235.8 to 236.2 °C.

With `OCC(O)COc1ccc2cnn(-c3ccnc(N[C@H]4CC[C@H](O)CC4)n3)c2c1` (some centres unmarked) [Compound 93, 3-{1-[2-(4-hydroxy-cyclohexylamino)-pyrimidin-4-yl]-1H-indazol-6-yloxy}-propane-1,2-diol], the melting point is 223.8 to 224.7 °C.

The compound `O[C@H]1CC[C@H](Nc2nccc(-n3ncc4c(OCC5CC5)cccc43)n2)CC1` [Compound 94, 4-[4-(4-cyclopropyl-methoxy-indazol-1-yl)-pyrimidin-2-ylamino]-cyclohexanol] showed a melting point greater than 300 °C.

Compound `O=C(COc1cccc2c1cnn2-c1ccnc(N[C@H]2CC[C@H](O)CC2)n1)N[C@H]1CC[C@H](O)CC1` [Compound 95, N-(4-hydroxy-cyclo-hexyl)-2-{1-[2-(4-hydroxy-cyclohexyl-amino)-pyrimidin-4-yl]-1H-indazol-4-yloxy}-acetamide] had a melting point of 220 to 222.3 °C.

`CS(=O)(=O)Nc1cccc2c1ccn2-c1ccnc(N[C@H]2CC[C@H](O)CC2)n1` [Compound 97, N-{1-[2-(4-hydroxy-cyclohexylamino)-pyrimidin-4-yl]-1H-indol-4-yl}-N-methane-sulfonamide] registered a melting point of 240.2 to 240.8 °C.

With `CCc1cccc2c1cnn2-c1ccnc(N[C@H]2CC[C@H](O)CC2)n1` [Compound 99, 4-[4-(4-ethylindazol-1-yl)-pyrimidin-2-yl-amino]-cyclohexanol], the melting point fell in the range of 170.2 to 174.4 °C.

With `CNC(=O)OCc1cccc2c1ccn2-c1ccnc(N[C@H]2CC[C@H](O)CC2)n1` [Compound 100, Methyl-carbamic acid 1-[2-(4-hydroxy-cyclo-hexylamino)-pyrimidin-4-yl]-1H-indol-4-ylmethyl ester], the melting point lay within 132 to 133 °C.

`N#CCc1cccc2c1ccn2-c1ccnc(N[C@H]2CC[C@H](O)CC2)n1` [Compound 101, {1-[2-(4-hydroxy-cyclo-hexylamino)-pyrimidin-4-yl]-1H-indol-4-yl}-acetonitrile] gave a melting point of 207 to 209 °C.

The compound `COCc1cccc2c1ccn2-c1ccnc(N[C@H]2CC[C@H](O)CC2)n1` [Compound 102, 4-[4-(4-methoxymethyl-indol-1-yl)-pyrimidin-2-ylamino]-cyclohexanol] gave a melting point of 134.8 to 137.3 °C.

On to `O[C@H]1CC[C@H](Nc2nccc(-n3ncc4c(OCc5ccccn5)cccc43)n2)CC1` [Compound 103, 4-{4-[4-(pyridine-2-yl-methoxy)-indazol-1-yl]-pyrimidin-2-ylamino}-cyclohexanol], for which the melting point is 202.5 to 203.6 °C.

Compound `COc1cccc2c1cnn2-c1ccnc(N[C@H]2CC[C@H](C(=O)N(C)C)CC2)n1` [Compound 105, 4-[4-(4-methoxyindazol-1-yl)-pyrimidin-2-ylamino]-cyclo-hexanecarboxylic acid dimethylamide] yielded a melting point of 278.8 to 280 °C.

Compound `O=C1c2ccccc2C(=O)N1Cc1cccc2c1ccn2-c1ccnc(N[C@H]2CC[C@H](O)CC2)n1` [Compound 106, 2-{1-[2-(4-hydroxy-cyclohexylamino)-pyrimidin-4-yl]-1H-indol-4-ylmethyl}-isoindole-1,3-dione] gave a melting point of 251.7 to 253 °C.

`CC(C)(O)c1cccc2c1ccn2-c1ccnc(N[C@H]2CC[C@H](C(=O)NCCS(C)(=O)=O)CC2)n1` [Compound 107, 4-{4-[4-(1-hydroxy-1-methylethyl)-indol-1-yl]-pyrimidin-2-yl-amino}-cyclohexane-carboxylic acid (2-methanesulfonyl-ethyl)-amide] displayed a melting point of 208 to 210 °C.

`CCS(=O)(=O)Cc1cccc2c1ccn2-c1ccnc(N[C@H]2CC[C@H](O)CC2)n1` [Compound 108, 4-[4-(4-ethanesulfonyl-methyl-indol-1-yl)-pyrimidin-2-ylamino]-cyclohexanol]: the melting point was 193.3 to 194.6 °C.

The compound `CC(=O)N[C@H]1CC[C@H](Nc2nccc(-n3ccc4c(C(C)(C)O)cccc43)n2)CC1` [Compound 109, N-(4-{4-[4-(1-hydroxy-1-methylethyl)-indol-1-yl]-pyrimidin-2-yl-amino}-cyclohexyl)-acetamide] registered a melting point of 172 to 173.6 °C.

As to `CS(=O)(=O)N[C@H]1CC[C@H](Nc2nccc(-n3ccc4c(CC#N)cccc43)n2)CC1` [Compound 110, N-{4-[4-(4-cyano-methyl-indol-1-yl)-pyrimidin-2ylamino]-cyclohexyl}-methane-sulfonamide], the melting point fell in the range of 235 to 235.5 °C.

`CNC(=O)COc1cccc2c1cnn2-c1ccnc(N[C@H]2CC[C@H](O)CC2)n1` [Compound 112, 2-{1-[2-(4-hydroxy-cyclohexylamino)-pyrimidin-4-yl]-1H-indazol-4-yloxy}-N-methyl-acetamide] registered a melting point of 226 to 227 °C.

In turn, `N#CCc1cccc2c1ccn2-c1ccnc(N[C@H]2CC[C@H](C(=O)N3CCCC3)CC2)n1` [Compound 114, (1-{2-[4-(pyrrolidino-1-carbonyl)-cyclohexyl-amino]-pyrimidin-4-yl}-1H-indol-4-yl)-acetonitrile] gave a melting point of 136 to 137.5 °C.

The compound `CS(=O)(=O)N[C@H]1CC[C@H](Nc2ncc(F)c(-n3ccc4ccccc43)n2)CC1` [Compound 115, N-[4-(5-fluoro-4-indol-1-yl-pyrimidin-2-ylamino)-cyclohexyl]-methanesulfonamide] returned a melting point of 270 to 270.5 °C.

Turning to `CC(C)(O)c1cccc2c1ccn2-c1ccnc(N[C@H]2CC[C@H](C(=O)N3CCCC3)CC2)n1` [Compound 116, (4-{4-[4-(1-hydroxy-1-methylethyl)-indol-1-yl]-pyrimidin-2-yl-amino}-cyclohexyl)-pyrrolidin-1-yl-methanone], the melting point was in the range of 207.8 to 209.8 °C.

In turn, `CC(C)(O)c1cccc2c1ccn2-c1ccnc(N[C@H]2CC[C@H](NS(C)(=O)=O)CC2)n1` [Compound 117, N-(4-{4-[4-(1-hydroxy-1-methylethyl)-indol-1-yl]-pyrimidin-2-yl-amino}-cyclohexyl)-methanesulfonamide] gave a melting point of 247 to 249.6 °C.

Regarding `CS(=O)(=O)N[C@H]1CC[C@H](Nc2ncc(Cl)c(-n3ccc4ccccc43)n2)CC1` [Compound 118, N-[4-(5-chloro-4-indol-1-ylpyrimidin-2-yl-amino)-cyclohexyl]-methanesulfonamide], the melting point lay within 203.8 to 204.9 °C.

For `CC(=O)N[C@H]1CC[C@H](Nc2ncc(Cl)c(-n3ccc4ccccc43)n2)CC1` [Compound 119, N-[4-(5-chloro-4-indol-1-ylpyrimidin-2-yl-amino)-cyclohexyl]-acetamide], the melting point is 263.2 to 263.8 °C.

`O=C([C@H]1CC[C@H](Nc2ncc(Cl)c(-n3ccc4ccccc43)n2)CC1)N1CCCC1` [Compound 120, [4-(5-chloro-4-indol-1-ylpyrimidin-2-ylamino)-cyclohexyl]-pyrrolidin-1-ylmethanone] came in with a melting point of 182 to 182.5 °C.

`CC(C)(O)[C@H]1CC[C@H](Nc2nccc(-n3ccc4c(CC#N)cccc43)n2)CC1` [Compound 123, (1-{2-[4-(1-hydroxy-1-methylethyl)-cyclo-hexylamino]-pyrimidin-4-yl}-1H-indol-4-yl)-acetonitrile]: the melting point lay within 188 to 191.7 °C.

Turning to `CNC(=O)COc1cccc2c1cnn2-c1ccnc(N[C@H]2CC[C@H](C(=O)N(C)C)CC2)n1` [Compound 124, 4-[4-(4-methylcarba-moylmethoxy-indazol-1-yl)-pyrimidin-2-yl-amino]-cyclohexane-carboxylic acid dimethylamide], the melting point was in the range of 183 to 185 °C.

Turning to `COc1cccc2c1cnn2-c1ccnc(N[C@H]2CC[C@H](C(=O)N3CCCC3)CC2)n1` [Compound 125, {4-[4-(4-methoxy-indazol-1-yl)-pyrimidin-2-ylamino]-cyclohexyl}-pyrrolidin-1-ylmethanone], the melting point was 246.5 to 247 °C.

Compound `COc1cccc2c1cnn2-c1ccnc(N[C@H]2CC[C@H](NS(C)(=O)=O)CC2)n1` [Compound 126, N-{4-[4-(4-methoxy-indazol-1-yl)-pyrimidin-2-ylamino]-cyclohexyl}-methanesulfonamide] had a melting point of 291.5 to 292.5 °C.

In the case of `CC(=O)N[C@H]1CC[C@H](Nc2nccc(-n3ncc4c(OCCO)cccc43)n2)CC1` [Compound 130, N-(4-{4-[4-(2-hydroxy-ethoxy)-indazol-1-yl]-pyrimidin-2-ylamino}-cyclohexyl)-acetamide], the melting point lay in the range of 242.7 to 245.5 °C.

Values taken from patent US8399462B2, “JNK modulators” (Roche Palo Alto LLC, priority 2006, dated 2013).
